Legend:
[1] = target: T1, short form of the GPR120 receptor (Homo sapiens, UniProt Q5NUL3); assay: Human GPR120 DiscoveRx PathHunter beta-arrestin assay, Procedure β-arrestin B; assay type: cell-based; settings: PathHunter CHO-K1 GPR120S β-Arrestin cells, 5000 cells/well; read-out: hGPR120 β-arrestin B EC50
T1 construct: host or cells: PathHunter CHO-K1 GPR120S β-Arrestin Cell Line
T1 sequence (Q5NUL3 1-361): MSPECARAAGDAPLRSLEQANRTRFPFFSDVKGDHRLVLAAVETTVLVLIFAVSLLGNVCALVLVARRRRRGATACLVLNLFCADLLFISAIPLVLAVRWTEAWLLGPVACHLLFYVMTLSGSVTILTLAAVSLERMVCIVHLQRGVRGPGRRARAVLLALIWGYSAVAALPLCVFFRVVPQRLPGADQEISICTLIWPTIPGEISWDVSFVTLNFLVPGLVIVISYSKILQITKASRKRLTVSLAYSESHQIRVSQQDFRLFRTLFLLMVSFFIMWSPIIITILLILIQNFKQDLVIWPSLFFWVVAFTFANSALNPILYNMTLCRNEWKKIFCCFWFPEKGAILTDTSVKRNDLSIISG
Text: The binding of an agonist (medium/long chain fatty acids or small molecule agonists) to the G-protein-coupled receptor GPR120 activates phospholipase C, leading to release of intracellular Ca^+2 through the generation of inositol 1,4,5-trisphosphate (InsP3 or IP3). GPR120 activation can also trigger intracellular signaling via recruitment of Beta-Arrestin. In the present method, agonist-induced activation of the human GPR120 receptor is monitored through the use of PathHunter CHO-K1 GPR120 Beta-Arrestin Cell Line engineered by DiscoveRx, as detailed below. The cell lines are designed to co-express both the ProLink/Enzyme Donor (PK)-tagged GPCR and the Enzyme […] (EA)-tagged Beta-Arrestin fusion proteins. Upon GPR120 receptor stimulation/activation, the EA-tagged Beta-Arrestin portion is translocated to the tagged receptor, where the two enzyme fragments are brought within close proximity. Under these conditions, these fragments can interact and form an active Beta-gal enzyme complex through Enzyme Fragment Complementation (EFC). This active Beta-gal complex can enzymatically hydrolyse the substrate to produce a detectable light signal; therefore, activation as a function of agonist concentration can be expressed as an EC50 value to determine relative compound activities. This in vitro assay therefore serves to assess compound agonist activity of the GPR120.
In Procedure β-arrestin B the cells used were PathHunter CHO-K1 GPR120S β-Arrestin Cell Line, expressing the short form of the GPR120 receptor (Accession #NM 181745), with 5000 cells/well.
The selected CHO-K1 GPR120 β-Arrestin cells were cultured in Ham's F12 media supplemented with 10% fetal bovine serum (FBS), 1% Glutamine, 1×p/s, 800 μg/mL G418 and 300 μg/mL Hygromycin B (for selection). Cell stocks were maintained and grown in a sub-confluent state using standard cell culture procedures. The day before the experiment, the cells were harvested with non-enzymatic cell dissociation buffer and re-suspended in complete growth media at the desired concentration. A Corning 384-plate was then seeded with the proper number of cells in a volume of 25 μL, per well. The seeded plates were incubated overnight at 37° C.
On the day of the experiment, the Assay Buffer containing (a) HBSS with Ca^++ and Mg^++, (b) 20 mM HEPES, and (c) 0.1% BSA stabilizer (pH 7.4) was prepared. The growth medium was gently removed from the cell plates and 20 μL of Assay Buffer added to each well. The plate was then incubated at 37° C. for 60 min. Test compounds were serially diluted in Assay Buffer to desired concentrations (more particularly to one or more of the following μM concentrations: 25, 12.5, 6.25, 3.125, 1.5625, 0.78125, 0.390625, 0.1953125, 0.09765625, 0.048828125, 0.024414063, 0.012207031). Five μL of compound dilution was then added to each well and the plate incubated at 37° C. for 90 min. The detection reagents were prepared according to the manufacture's instruction. Twelve μL of the detection reagents were added to each well and the plate incubated at room temperature for 60 min.
The plates were read on an EnVision instrument, using Protocol name: Luminescence, Plate type: 384 Costar, Measurement height: 3 mm, Measurement time: 1 s, Aperture: 384 Plate aperture. The % activity relative to the positive control was calculated using the following equation:
The % Activity values were plotted versus the concentration of test compound and fitted to a sigmoidal dose-response curve with a Hill slope=1 (fixed value) using nonlinear regression with GraphPad Prism 5.0 to calculate the EC50 values. The Fitting Equation was: Y=Bottom+(Top-Bottom)/(1+10^((Log EC50−X)*HillSlope)), where X is the log of the concentration and Y is the response.

Human GPR120 short form = target: T2, Human GPR120 short form (Homo sapiens, UniProt Q5NUL3); assay: Human GPR120 calcium flux assay, Procedure Calcium A; assay type: cell-based; settings: HEK-293 cells, FLIPR, 2500 cells/well; read-out: GPR120 Ca2+ Assay A EC50
T2 construct: expressed in transfected cells
T2 sequence (Q5NUL3 1-361): T1 sequence (Q5NUL3 1-361)

EC50 [1] [nM] | EC50 (Human GPR120 short form) [nM] | SMILES
68 | 30 | O=C(O)CCc1cc(F)c(OCc2sc(Cl)cc2-c2ccc(Cl)cc2)c(F)c1 [Cpd 2, 3-(4-{[5-Chloro-3-(4-chlorophenyl)thiophen-2-yl]methoxy}-3,5-difluorophenyl)propanoic acid]
322 | 50 | Cc1sc(-c2ccccc2)c(COc2ccc(CCC(=O)O)c(C)c2C)c1C(F)(F)F [Cpd 33, 3-(2,3-Dimethyl-4-{[5-methyl-2-phenyl-4-(trifluoromethyl)thiophen-3-yl]methoxy}phenyl)propanoic acid]
31 | 50 | OCCCc1cc(F)c(OCc2c(Cl)nsc2-c2ccc(Cl)cc2)c(F)c1 [Cpd 78, 3-(4-{[3-Chloro-5-(4-chlorophenyl)isothiazol-4-yl]methoxy}-3,5-difluorophenyl)propan-1-ol]

Reference: patent publication US10118922B2 (Janssen Pharmaceutica NV, priority 2013, dated 2018)
